Experimental data from patent publication US10806726B2, “Methods of using indazole-3-carb oxamides and their use as Wnt/B-catenin signaling pathway inhibitors” (Samumed, LLC, priority 2016, dated 2020).

Assays:
[1] = tested on: primary human mesenchymal stem cells (hMSCs); assay: Tenocyte Differentiation Assay, hMSCs, 7 days (Example 11); type: cell-based; details: 168 h, 750-5.8 nM, read-out: EC50, induction of SCXA, TenacinC and Tenomodulin expression
Experimental: Primary human mesenchymal stem cells (hMSCs; Lonza Inc) were cultured in MSCGM™ Mesenchymal Stem Cell Growth Medium, with 10% FBS (Lonza) 10% fetal bovine serum (FBS) (Hyclone) at 37° C., 5% CO2. hMSCs were used between passage 2 and 6 and were never allowed to reach confluence to maintain a naive state.
Tenocyte Differentiation Assay. For tenocyte differentiation, hMSCs were plated in 384-well plates at 1×10^4 cells/well in Dulbecco's modified Eagle's medium (DMEM, ThermoFisher) with 1% fetal bovine serum (FBS) (Hyclone). Cells were then treated with DMSO (vehicle control) or compound 175 at 750 nM top concentration and 2-fold dilution up to 8 concentrations ([…], 166.6, 83.3, 41.7, 21.7, 10.8 and 5.8 nM) and incubated for 7 days at 37° C. A combination of BMP and FGF ([…], Peprotech, Inc.) was used as a positive control. […] Plates were imaged using a CX5 high-content imager (ThermoFisher) and the % of cells stained positive were determined using a cell scoring algorithm (ThermoFisher). Data was plotted and EC50 was calculated using Prism 5 (GraphPad Software Inc, La Jolla, Calif., USA). […]

[2] = tested on: collagenase-induced tendonitis of the Achilles tendon in Sprague Dawley rats; assay: Rat Tendinopathy Model (2), collagenase-induced, tendon histology scoring; type: in vivo; details: for tendon histology score: topical once daily 21 days, total score of 20
Experimental: Fifty (50 μl) of Collagenase Type IA (10 mg/ml in PBS, pH 7.4, approximately 469 units/mg) (Catalog # C5138, Sigma, St. Louis, Mo.) was injected into the Achilles tendon of both ankles near the osteotendinous junction of male Sprague Dawley CD® IGS rats (CRL, Inc.), using insulin syringes with 28.5 G needle.
Rats were divided into 6 groups, with 6 animals per group except 8 animals in Group 2: Group 1 (sham injection), Group 2 (Collagenase-Vehicle with 0.5% Phx), Group 3 (Collagenase-compound 175 3 mg/mL with 0.5% BA), Group 4 (Collagenase-compound 175 10 mg/mL with 0.5% BA), Group 5 (Collagenase-compound 175 3 mg/mL with 0.5% Phx) and Group 6 (Collagenase-compound 175 10 mg/mL with 0.5% Phx). […] All rats were periodically observed for any pain, illnesses or abnormalities. At various time points, blood was collected for plasma in lithium heparin coated tubes by saphenous vein bleeding. For histology, rats were euthanized using isoflurane, tendons were isolated (n=8 tendons/group), fixed in 10% buffered formalin (Catalog # SF93-4, Fisher, Pittsburgh, Pa.) and H & E histology staining was performed at a secondary site (Pacific Pathology, San Diego, Calif.). For biochemical analysis, tendons were isolated (n=4 tendons/group), flash frozen in liquid nitrogen and then stored at −80° C. for subsequent biochemical analysis (not reported). Additionally, one (1) day after collagenase injection, 4 tendons were collected from Group 2 (vehicle) to observe the induction of inflammation (not reported).
There is biological variability in response to collagenase when injected directly into the tendons. […] Therefore, the entire tendon was isolated and placed in a tissue cassette and embedded in paraffin. Five (5) μm sections were generated with an average of 3 sections being fixed on one slide with a minimum of eight (8) slides per tendon and subjected to Hematoxylin & Eosin (H&E) staining. Slides were viewed under an upright light microscope (EVOS AMEX-1200) at a 10× magnification and scored blinded using a 1-4 scoring system of severity: 1-representing severe damage and 4—representing normal tendon, for Linearity of the fiber structure, Shape of the tendon cells, Density of the tendon cells, Inflammation, and Hemorrhage for a total score of twenty (20) using a modification of that described previously (Urdzikova et al., 2014—see Table 3). After the analysis was completed, the scorer was unblinded and scores for each criterion was annotated, totaled and total scores from each section were averaged together to generate a final score for each rat followed by averaging of scores for a given treatment group.
For tendon scoring, each section was analyzed following a 1-4 point scoring system as previously described (Urdzikova et al., 2014) with the exclusion of one variable, Thickness of the epitenon, due to difficulty in discerning the epitenon layer in the histology sections. In this study, a total of 94 sections were scored for Group 1 (sham injection, control group) and between 92-116 sections for Group 2 (Collagenase-Vehicle with 0.5% Phx); Group 3 (Collagenase-compound 175 3 mg/mL with 0.5% BA), Group 4 (Collagenase-compound 175 10 mg/mL with 0.5% BA), Group 5 (Collagenase-compound 175 3 mg/mL with 0.5% Phx) and Group 6 (Collagenase-compound 175 10 mg/mL with 0.5% Phx).

COc1ccc(NC(=O)c2n[nH]c3ccc(-c4cncc(CN5CCCCC5)c4)cc23)cn1 [compound 175, N-(6-Methoxypyridin-3-yl)-5-(5-(piperidin-1-ylmethyl)pyridin-3-yl)-1H-indazole-3-carboxamide]
EC50 [1]: 139 to 189 nM | blinded histology scoring of tendon injury and inflammation vs vehicle ([2]; 3 and 10 mg/mL, with either BA or Phx as preservative): significantly ameliorated collagenase-induced tendinopathy | tendon histology score ([2]; Group 3, 3 mg/mL with 0.5% BA): 14.5 (±1.15) | tendon histology score ([2]; Group 4, 10 mg/mL with 0.5% BA): 14.8 (±0.968) | tendon histology score ([2]; Group 5, 3 mg/mL with 0.5% Phx): 15.1 (±0.506) | tendon histology score ([2]; Group 6, 10 mg/mL with 0.5% Phx): 13.2 (±0.855)
